Assay results from patent US7414077B2, “Therapeutic intervention to mimic the effect of caloric restriction” (priority 1999, dated 2008).

What was measured:
5′ deiodinase [1] = test: effect of in vitro free fatty acids on 5′ deiodinase activity (thyroid hormone synthesis in vitro); type: biochemical; settings: 1 mM free fatty acid; as a function of substrate concentration
Experimental: (§1) Reaction velocities were measured under control conditions (▴) and in the presence of 1 mM free fatty acids palmitic acid (●) and oleic acid (▪). Each point on the curve represents the mean of triplicate determinations. Lineweaver-Burk plots described lines characterized by r^2 from 0.988-0.999.

5′ deiodinase [2] = test: 5′ deiodinase activity as a function of substrate concentration (Lineweaver-Burk), control conditions; type: biochemical; settings: in vitro, without free fatty acids, mean of triplicate determinations, Lineweaver-Burk plot, FIG. 2A
Experimental: as §1

Row | Structure (SMILES) | effect on thyroid hormone synthesis in vitro (5′ deiodinase activity) (5′ deiodinase [1]) | Km (5′ deiodinase [2])
1 | CCCCCCCC/C=C\CCCCCCCC(=O)O [oleic acid] | inhibit thyroid hormone synthesis in vitro | –
2 | CCCCCCCCCCCCCCCC(=O)O [palmitic acid] | inhibit thyroid hormone synthesis in vitro | –
3 | N[C@@H](Cc1ccc(Oc2cc(I)c(O)c(I)c2)c(I)c1)C(=O)O [rT3] | – | 2.38 µM
